Results from article PMC4209782 (Biochemical Journal, 2014).
pKd: −log10 of the molar value. Like-named read-outs stand apart in the source and are kept apart here.

Assays:
Assay type in all cases: binding
[1] = target: T1, 3×FLAG–SGK3-(1–162) PX domain wild-type (Homo sapiens, UniProt Q96BR1); experiment: ITC, wild-type SGK3 PX domain; conditions: 30°C
T1 construct: reaction chamber containing wild-type 3×FLAG–SGK3-(1–162) PX domain; host or cells: E. coli BL21-CodonPlus (DE3)-RIL (from general methods, not tied expressly to this protein)
T1 sequence (Q96BR1 1-162): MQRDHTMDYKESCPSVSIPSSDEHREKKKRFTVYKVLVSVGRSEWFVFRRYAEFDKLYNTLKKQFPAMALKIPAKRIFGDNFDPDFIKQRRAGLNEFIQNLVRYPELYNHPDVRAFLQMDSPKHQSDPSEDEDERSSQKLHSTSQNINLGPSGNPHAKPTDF
Experimental: (§1) ITC experiments were carried out on a Microcal VP-ITC. A series of injections of peptide were made into an isolated chamber containing the protein at a constant temperature of 30°C. Heat changes within the cell were monitored during each injection of peptide and recorded as the total heat change per second over time. A binding isotherm was then fitted to data and expressed as the heat change per mol of peptide against the peptide/protein ratio. Injectant was PtdIns and PtdIns(3)P (Echelon) dissolved in buffer (50 mM Hepes, pH 7.4, and 150 mM NaCl). […] Data were analysed using Origin 7.0 with the Microcal software patch installed. […]
(§2) Figure 5 SGK3 binds to PtdIns(3)P via its PX domain (A) ITC was performed by gradually titrating 0.5 mM PtdIns(3)P into the reaction chamber containing wild-type 3×FLAG–SGK3-(1–162) PX domain (left panel) or mutant 3×FLAG–SGK3-(1–162) R50A PX domain (middle panel) and 3×FLAG–SGK3-(1–162) R90A PX domain (right panel). […] Kd were calculated using Origin 7.0 with ITC data analysis disc program. (B) The ability of the indicated GST fusion proteins to bind various phosphoinositides was analysed. […] The membranes were washed and the PX domain protein bound to the membrane by virtue of its interaction with lipid was detected using by using HRP-conjugated anti-FLAG antibodies (SGK3 PX domain) or anti-GST (PH domains).

[2] = tested on: T2, 3×FLAG–SGK3-(1–162) R50A PX domain; experiment: ITC, SGK3 PX domain R50A
T2 construct: mutant 3×FLAG–SGK3-(1–162) R50A PX domain (middle panel); host or cells: E. coli BL21-CodonPlus (DE3)-RIL (from general methods, not tied expressly to this protein)
Experimental: as §1, §2

[3] = tested on: T3, 3×FLAG–SGK3-(1–162) R90A PX domain; experiment: ITC, SGK3 PX domain R90A
T3 construct: 3×FLAG–SGK3-(1–162) R90A PX domain (right panel); host or cells: E. coli BL21-CodonPlus (DE3)-RIL (from general methods, not tied expressly to this protein)
Experimental: as §1, §2

## PtdIns(3)P
[1]; read-out: Kd1
  pKd: 5.74
[1]; read-out: Kd2
  pKd: 5.28
[2]
  binding to PX domain with Arg50 to alanine mutation: abolished binding
[3]
  binding to PX domain with Arg90 to alanine mutation: abolished binding
